Reference: patent US11179384B2, “Treatment of nonalcoholic fatty liver disease” (TAKEDA GMBH, priority 2016, dated 2021)

Key:
Homozygous LDLR-KO mice = assay: Therapeutic effects in a mouse model of NASH (LDLR-KO mice, mCDAA diet, after fibrosis formation); type: in vivo; settings: 6 weeks mCDAA diet then 4 and 8 mg/kg p.o. QD for 10 weeks (therapeutic)
Protocol: To evaluate therapeutic potential of Compound A, effects of Compound A were additionally examined after hepatic fibrosis formation. Homozygous LDLR-KO mice were fed with chow or mCDAA diet (A08111307, Research Diets, USA). After 6 week under chow or mCDAA diet, the mice were orally dosed with Compound A (4, and 8 mg/5 mL/kg, QD, n=12; suspension in 0.5 w/v % methylcellulose solution) for 10 weeks.

Male C57BL/6J mice (DIO) = assay: Body weight, fat and lean mass, 4 weeks treatment in diet-induced obese (DIO) mice; type: in vivo; settings: for Body weight change from pretreatment (Day 0): mean±S.D., vehicle +3.8%
Protocol: Male C57BL/6J mice were obtained from CLEA Japan, Inc. The mice were fed High fat diet D12451 (Research diets, Inc) from 5 week to 54-week old and water ad libitum.
All mice were housed individually in animal cages and used for the study after 2 weeks of acclimation period. Animal groups (n=7) were treated with either vehicle (0.5 w/v % methylcellulose, p.o.) or Compound A (1 mg/kg or 3 mg/kg, p.o. suspension in 0.5 w/v % methylcellulose solution) in the evening once a day for 4 weeks from 50 weeks of age. Body weight was measured 2 or 3 times per week. Regarding body composition fast mass and lean mass were measured.
Body composition (fat mass and lean mass) was measured by Echo-MRI-900 (ALOKA Japan).
All data are presented as mean±S.D. For evaluation of the effects of Compound A, statistical significances between vehicle (p.o.) and Compound A treated groups were analyzed with one-tailed Williams' test or Shirley-Williams test when the variances among the groups were homogeneous or heterogeneous, respectively. The p-values less than 0.025 were considered statistically significant in one-tailed Williams' test or Shirley-Williams test. Body weight change from pretreatment (Day 0) was calculated using the following formula: [(BW-BW at Day 0)/BW at Day 0]×100.

[1] = tested on: male C57BL/6J mice (high caloric diet); assay: Liver lipidosis / liver weight, 8 weeks treatment in diet induced obese (DIO) mice; type: in vivo; settings: for Liver weight (Day 56) / Grade Liver Lipidosis (mean): high caloric diet; for Liver weight (Day 56): vehicle HD 1.04, SD 0.96; for Grade Liver Lipidosis (mean): day 56, grades 1 minimal to 4 marked, vehicle HD 1.5
Text: Obesity was induced in male C57BL/6J mice (Charles River, Germany; 6 weeks of age weighing 19-20 g at start of study) by feeding a high caloric diet (60% kcal % fat; No. 2127; Provimi-Kliba, Switzerland)) for 7 weeks. Animals were single housed in Makrolon cages type II-Long with free access to food and tap water. When body weight gain exceeded 50% compared to body weight at onset of diet, the animals were randomized according to body weight (day −4) followed by treatment for 8 weeks with daily doses of Compound A (0.3, 1, 3 and 10 mg/kg/day, p.o; dissolved in 4% (w/v) aqueous methocel solution to give the required dose in a volume of 10 mL/kg body weight; n=10 in each group). After 8 weeks of treatment, animals were sacrificed. Liver was removed, weighed and fixed in 4% neutral buffered formalin for 2 days, embedded in paraffine and stained with Hematoxylin-Eosin for histological evaluation. The slides were blinded for histological reading and liver lipidosis was evaluated by light microscopy.
The degree of liver lipidosis was assessed semi-quantitatively by the following grading criteria:
Grade 1 (minimal): small round cytoplasmic vacuoles within hepatocytes
Grade 2 (mild): small to medium sized round cytoplasmic vacuoles within hepatocytes
Grade 3 (moderate): in addition: round cytoplasmic vacuoles, partly forcing the nucleus to the periphery of the cell
Grade 4 (marked): in addition: whole lobe affected
For focal changes or multifocal changes 0.5 or 0.25 were subtracted respectively. The mean severity index was calculated by dividing the sum of all gradings/group by the number of animals/group.

[2] = tested on: alfa smooth muscle actin (αSMA) gene expression in human stellate cells (HSCs); assay: Anti-fibrotic activity in human hepatic stellate cells (TGF-β-induced αSMA gene expression); type: cell-based; settings: primary human HSCs; 0.0001-1 μM, TGF-β 0.2 ng/mL, forskolin 1 μM, 24 hours
Protocol: The effect on human stellate cells (HSCs) activation was evaluated by gene expression of alfa smooth muscle actin (αSMA) induced by TGF-β.
Primary HSCs (ScienCell) were suspended in serum-free SteCM medium (ScienCell) and seeded on Poly-D-Lysine-coated 96 well plates as 2.5×10^3 cells/100 uL/well. Six hours after the seeding, HSCs were treated with Compound A (0, 0.0001, 0.001, 0.01, 0.1, and 1 μM), TGF-β (0.2 ng/mL) and forskolin (1 μM) for 24 hours. After the 24-hours incubation, total RNA was extracted from cell lysate using RNeasy 96 Kit (QIAGEN 74182). cDNA was amplified using High-Capacity cDNA Reverse Transcription Kit (ABI 4368813), and target gene mRNA was measured using Taqman PCR. The target gene expression level was normalized by GAPDH. The experiment was repeated 5 times.

[3] = tested on: Tumor Necrosis Factor Alpha (TNFα); assay: Systemic TNFα release in LPS-challenged Sprague Dawley rats; type: in vivo; settings: SD rats; 0.1, 0.3, 1, 3 and 10 mg/kg p.o. 1 h before LPS 20 μg/kg i.v.; plasma 1 h after LPS; significant at all doses
Protocol: Compound A was administered 1 h before LPS challenge at doses of 0.1, 0.3, 1, 3 and 10 mg/kg (n=8 animals per dose group). An LPS and vehicle treated control group of n=8 animals was enclosed. Compound A or vehicle was given per os (p.o.) by gavage (administration volume: 10 mL/kg b.w.). LPS was injected intravenously (i.v.) at a dose of 20 μg/kg (administration volume: 1 mL/kg b.w.) 1 h after compound or vehicle administration.
One hour after LPS-challenge, the animals were sacrificed by inhalative isoflurane anaesthesia (5%; flow rate: 2-3 L/min) and subsequent cervical dislocation. Heparinized blood was obtained by heart puncture. Blood was centrifuged (21,000×g, 4° C., 10 min), and plasma samples were kept frozen at −20° C. until determination of TNFα levels by ELISA.

[4] = Phase 1 clinical studies (single rising dose and multiple rising dose); type: in vivo, humans
Text: Compound A differs from other development candidates intended for the treatment of NAFLD/NASH in that it exerts its effects via anti-inflammatory, anti-fibrotic and anti-steatotic mode of action. […] It is furthermore believed that all of these effects observed in in vitro and animal experiments will translate in corresponding effects in the clinical setting in humans.

[5] = 1 mg/kg p.o. once a day for 4 weeks
[6] = 1 and 3 mg/kg p.o. once a day for 4 weeks
[7] = 3 and 10 mg/kg p.o. daily, 8 weeks

CCOc1cc2c(cc1OC)C(c1ccc(=O)n(C)c1)=N[C@@H]1CC[C@@H](O)C[C@H]21 [Compound A, 5-((2R,4aR,10bR)-9-Ethoxy-2-hydroxy-8-methoxy-1,2,3,4,4a,10b-hexahydro-phenanthridin-6-yl)-1-methyl-1H-pyridin-2-one]
hepatic TG content (Homozygous LDLR-KO mice): significantly reduced from the initial value | hepatic fibrosis area (Homozygous LDLR-KO mice): reduction | body weight reduction corrected with vehicle-treated body weight change (Male C57BL/6J mice (DIO); [5]): −8.7±3.5% | Body weight change from pretreatment (Day 0) (Male C57BL/6J mice (DIO); [5]): −4.9±3.5% | Body weight change from pretreatment (Day 0) (Male C57BL/6J mice (DIO); 3 mg/kg p.o. once a day for 4 weeks): −17.2±4.0% | body weight during the 4-week study period (Male C57BL/6J mice (DIO); 1 and 3 mg/kg p.o. once a day): durable body weight lowering effect | fat mass (Echo-MRI) (Male C57BL/6J mice (DIO); [6]): dose dependently and significantly decreased | lean mass (Echo-MRI) (Male C57BL/6J mice (DIO); [6]): without affecting | increase in liver weight caused by high caloric diet [1, 7]: completely abolished | liver lipidosis [1, 7]: almost abolished | Liver weight (Day 56) ([1]; 0.3 mg/kg p.o. daily, 8 weeks): 1.08 g | Grade Liver Lipidosis (mean) ([1]; 0.3 mg/kg p.o.): 1.4 | Liver weight (Day 56) ([1]; 1.0 mg/kg p.o. daily, 8 weeks): 1.01 g | Grade Liver Lipidosis (mean) ([1]; 1.0 mg/kg p.o.): 0.6 | Liver weight (Day 56) ([1]; 3.0 mg/kg p.o. daily, 8 weeks): 0.96 g | Grade Liver Lipidosis (mean) ([1]; 3.0 mg/kg p.o.): 0.3 | Liver weight (Day 56) ([1]; 10 mg/kg p.o. daily, 8 weeks): 0.95 g | Grade Liver Lipidosis (mean) ([1]; 10.0 mg/kg p.o.): 0.2 | TGF-β-induced αSMA gene expression in HSCs [2]: dose-dependently suppressed | mean TNFα in blood plasma [3]: dose-dependently reduced | PDE4 inhibitor specific adverse events (diarrhea, nausea) ([4]; Phase 1, single dose 0.05 to 0.85 mg, multiple dose 0.05 to 0.8 mg 7 days, 0.35 and 0.8 mg up to 14 days): no PDE4 inhibitor specific adverse events | safety and pharmacokinetic profile ([4]; Phase 1 single rising dose and multiple rising dose studies): very favorable
